# From patent US20150337013A1, “NOVEL ANTIBACTERIAL AGENTS FOR THE TREATMENT OF GRAM POSITIVE INFECTIONS” (priority 2008, published 2015)
# Where “and” joins values, the source holds several entries; their conditions need not be identical. Equal values may be shown once. Read-outs that look alike come from different tables or passages of the source.
# Assays:
# [1] = system: C. difficile spores (ATCC #43596); assay: Hamster C. difficile infection (CDAD) protection model; assay type: in vivo, Syrian golden hamsters; conditions: oral 0.5 mg/kg once daily for 5 days (MET 70 mg/kg three times daily for 5 days)
# Protocol: Syrian golden hamsters were pretreated with 10 mg/kg clindamycin subcutaneously 24 hours before bacterial challenge. An inoculum of 20 C. difficile spores (ATCC #43596) in sterile saline was administered orally. Treatment was initiated 4 hours post-inoculation with dH2O, metronidazole (MET), vancomycin (VAN), or a compound of the present invention. Oral dosing regimens for VAN and compounds of Formula I were 0.5 mg/kg once daily for 5 days. MET was administered at 70 mg/kg three times daily for 5 days. CDAD was confirmed as the cause of death by observations at necropsy, including wet tail and/or macroscopic cecal alterations. The % protection provided by each therapy tested was calculated at 1 and 21 days post-dosing.
# [2] = system: daptomycin resistant Staph. aureus (DRSA), daptomycin resistant E. faecium (DREfm) and daptomycin resistance E. faecalis (DREfs); assay: Activity against daptomycin resistant bacteria, summary statement; assay type: cell-based; conditions: statement in words
# Protocol: (§1) Compounds according to Formula I were tested for antimicrobial activity against a panel of organisms. Aerobic organisms, Staphylococcus aureus, Enterococcus faecalis and E. faecium, were tested by broth microdilution according to Clinical and Laboratory Standards Institute (CLSI) document M7-A7 (Clinical and Laboratory Standards Institute. Methods for Dilution Antimicrobial Susceptibility Tests for Bacteria that Grow Aerobically; Approved Standard—Seventh Edition. CLSI document M7-A7 [ISBN 1-56238-587-9]. Clinical and Laboratory Standards Institute, 940 West Valley Road, Suite 1400, Wayne, Pa. 19087-1898 USA, 2006) with modifications as described below. Mueller Hinton Broth (MHBc) was supplemented with 50 mg/L calcium (equivalent to human physiological levels of calcium) and assay plates were incubated 18-20 hours at 37° C. with aeration (200 rpm).
# (§2) In all cases the final concentration of dimethyl sulfoxide incubated with cells is less than or equal to 1%. For minimum inhibitory concentration (MIC) calculations, 2-fold dilutions of compounds were added to wells of a microtiter plate containing 5×10^5 bacteria in a final volume of 100 μL of media. Following incubation, (18-20 hours at 37° C. with aeration at 200 rpm) growth was confirmed visually by placing plates over a viewing apparatus (stand with a mirror underneath) and then the optical density (OD600) was measured using a SpectraMax 340PC^384 plate reader. Growth was defined as turbidity that could be detected with the naked eye or achieving minimum OD600of 0.1. MIC values (in μg/mL) were defined as the lowest concentration producing no visible turbidity.
# [3] = system: Clostridium difficile
# [4] = system: gram positive bacteria; assay: Antimicrobial activity against a panel of organisms, summary statements; assay type: cell-based; conditions: statement in words
# Protocol: as §1, §2
# [5] = system: Enterococcus faecium EFM.14 (ATCC 6569); assay type: cell-based
# Outline: (§3)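 Broth microdilution per CLSI M7-A7 in Mueller Hinton broth supplemented with 50 mg/L calcium, 5×10^5 bacteria per well, 2-fold compound dilutions, DMSO ≤1%. Plates incubated 18-20 hours at 37° C with aeration (200 rpm); MIC (μg/mL) is the lowest concentration giving no visible turbidity.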
# [6] = system: Enterococcus faecalis EFS.312, Daptomycin resistant mutant (EFA); assay type: cell-based; conditions: MHBc with 50 mg/L calcium, 18-20 hours at 37° C.
# Outline: as §3
# [7] = system: Staphylococcus aureus SAU.42 (ATCC 29213); assay type: cell-based; conditions: MHBc with 50 mg/L calcium, 18-20 hours at 37° C.
# Outline: as §3
# [8] = system: Staphylococcus aureus SAU.399 (ATCC 43300), Methicillin and Oxacillin Resistant; assay type: cell-based
# Outline: as §3
# [9] = system: Enterococcus faecalis EFS.201 (ATCC 49452); assay type: cell-based
# Outline: as §3
# [10] = system: Staphylococcus aureus SAU.278, Daptomycin resistant mutant (D10); assay type: cell-based; conditions: MHBc with 50 mg/L calcium, 18-20 hours at 37° C.
# Outline: as §3
# [11] = system: Enterococcus faecium EFM.384, Daptomycin resistant mutant (14-A); assay type: cell-based; conditions: MHBc with 50 mg/L calcium, 18-20 hours at 37° C.
# Outline: as §3
# [12] = MHBc with 50 mg/L calcium, 18-20 hours at 37° C.
Compound,Mean % Protection 1 Day Post Dosing [1] [%],Mean % Protection 21 Days Post Dosing [1] [%],useful against daptomycin resistant strains of bacteria [2],C. diff MIC90 [3] [µg/mL],as active or more active than daptomycin [4],"Efm14 MIC [5, 12] [µg/mL]",Efs312 MIC [6],Sa42 MIC [7] [µg/mL],"Sa399 MIC [8, 12] [µg/mL]","Efs201 MIC [9, 12] [µg/mL]",Sa278 MIC [10],Efm384 MIC [11],more active against bacteria than daptomycin [4],Efm14 MIC ([5]; ATCC 6569) [µg/mL],Efs201 MIC ([9]; ATCC 49452) [µg/mL],Sa399 MIC ([8]; ATCC 43300) [µg/mL]
"CCCCCC12CCC(C(=O)N[C@@H](Cc3c[nH]c4ccccc34)C(=O)N[C@H](CC(N)=O)C(=O)N[C@@H](CC(=O)O)C(=O)N[C@@H]3C(=O)NCC(=O)N[C@@H](CCCN)C(=O)N[C@@H](CC(=O)O)C(=O)N[C@H](C)C(=O)N[C@@H](CC(=O)O)C(=O)NCC(=O)N[C@H](CO)C(=O)N[C@@H]([C@H](C)CC(=O)O)C(=O)N[C@@H](CC(=O)c4ccccc4N)C(=O)O[C@@H]3C)(CC1)CC2 [Compound 22, N-(4-pentylbicyclo[2.2.2]octane-1-carbonyl)-L-tryptophyl-D-asparaginyl-L-α-aspartyl-L-threonylglycyl-L-ornithyl-L-α-aspartyl-D-alanyl-L-α-aspartylglycyl-D-seryl-(3R)-3-methyl-L-α-glutamyl-(αS)-α,2-diamino-γ-oxobenzenebutanoic acid (13→4)-lactone]",85,38,useful against daptomycin resistant strains of bacteria,1,as active or more active than daptomycin,–,–,–,–,–,–,–,–,–,–,–
CCCCCCCCCCOc1ccc(C(=O)N[C@@H](Cc2c[nH]c3ccccc23)C(=O)N[C@H](CC(N)=O)C(=O)N[C@@H](CC(=O)O)C(=O)N[C@@H]2C(=O)NCC(=O)N[C@@H](CCCN)C(=O)N[C@@H](CC(=O)O)C(=O)N[C@H](C)C(=O)N[C@@H](CC(=O)O)C(=O)NCC(=O)N[C@H](CO)C(=O)N[C@@H]([C@H](C)CC(=O)O)C(=O)N[C@@H](CC(=O)c3ccccc3N)C(=O)O[C@@H]2C)cc1 [Compound 38],–,–,useful against daptomycin resistant strains of bacteria,1,as active or more active than daptomycin,0.5,0.5 µg/mL,0.25,0.5,0.5,0.50 µg/mL,1 µg/mL,more effective than daptomycin,–,–,–
"CCCCc1ccc(/C(C)=C/C(=O)N[C@@H](Cc2c[nH]c3ccccc23)C(=O)N[C@H](CC(N)=O)C(=O)N[C@@H](CC(=O)O)C(=O)N[C@@H]2C(=O)NCC(=O)N[C@@H](CCCN)C(=O)N[C@@H](CC(=O)O)C(=O)N[C@H](C)C(=O)N[C@@H](CC(=O)O)C(=O)NCC(=O)N[C@H](CO)C(=O)N[C@@H]([C@H](C)CC(=O)O)C(=O)N[C@@H](CC(=O)c3ccccc3N)C(=O)O[C@@H]2C)cc1 [Compound 48, N-{1-[(E)-3-(4-butylphenyl)but-2-enoyl]}-L-tryptophyl-D-asparaginyl-L-α-aspartyl-L-threonylglycyl-L-ornithyl-L-α-aspartyl-D-alanyl-L-α-aspartylglycyl-D-seryl-(3R)-3-methyl-L-α-glutamyl-(αS)-α,2-diamino-γ-oxobenzenebutanoic acid (13→4)-lactone]",–,–,useful against daptomycin resistant strains of bacteria,2,as active or more active than daptomycin,–,>32 µg/mL and 32 µg/mL,–,–,–,2 µg/mL and 4 µg/mL,32 µg/mL,–,2,1,–
"CCCCCCc1ccc(/C(C)=C/C(=O)N[C@@H](Cc2c[nH]c3ccccc23)C(=O)N[C@H](CC(N)=O)C(=O)N[C@@H](CC(=O)O)C(=O)N[C@@H]2C(=O)NCC(=O)N[C@@H](CCCN)C(=O)N[C@@H](CC(=O)O)C(=O)N[C@H](C)C(=O)N[C@@H](CC(=O)O)C(=O)NCC(=O)N[C@H](CO)C(=O)N[C@@H]([C@H](C)CC(=O)O)C(=O)N[C@@H](CC(=O)c3ccccc3N)C(=O)O[C@@H]2C)cc1 [Compound 50, N-{1-[(E)-3-(4-hexylphenyl)but-2-enoyl]}-L-tryptophyl-D-asparaginyl-L-α-aspartyl-L-threonylglycyl-L-ornithyl-L-α-aspartyl-D-alanyl-L-α-aspartylglycyl-D-seryl-(3R)-3-methyl-L-α-glutamyl-(αS)-α,2-diamino-γ-oxobenzenebutanoic acid (13→4)-lactone]",–,–,useful against daptomycin resistant strains of bacteria,0.5,as active or more active than daptomycin,–,4 µg/mL,–,–,–,1 µg/mL,4 µg/mL,more effective than daptomycin,1,0.25,0.5
"CCCCCCC1CCC(c2ccc(C(=O)N[C@@H](Cc3c[nH]c4ccccc34)C(=O)N[C@H](CC(N)=O)C(=O)N[C@@H](CC(=O)O)C(=O)N[C@@H]3C(=O)NCC(=O)N[C@@H](CCCN)C(=O)N[C@@H](CC(=O)O)C(=O)N[C@H](C)C(=O)N[C@@H](CC(=O)O)C(=O)NCC(=O)N[C@H](CO)C(=O)N[C@@H]([C@H](C)CC(=O)O)C(=O)N[C@@H](CC(=O)c4ccccc4N)C(=O)O[C@@H]3C)cc2)CC1 (stereo partly drawn) [Compound 54, N-[4-(−4-hexylcyclohexyl)benzoyl]-L-tryptophyl-D-asparaginyl-L-α-aspartyl-L-threonylglycyl-L-ornithyl-L-α-aspartyl-D-alanyl-L-α-aspartylglycyl-D-seryl-(3R)-3-methyl-L-α-glutamyl-(αS)-α,2-diamino-γ-oxobenzenebutanoic acid (13→4)-lactone]",0,0,useful against daptomycin resistant strains of bacteria,–,as active or more active than daptomycin,–,–,–,–,–,–,–,more effective than daptomycin,–,–,–
"CCCCCOc1ccc(-c2ccc(C(=O)N[C@@H](Cc3c[nH]c4ccccc34)C(=O)N[C@H](CC(N)=O)C(=O)N[C@@H](CC(=O)O)C(=O)N[C@@H]3C(=O)NCC(=O)N[C@@H](CCCN)C(=O)N[C@@H](CC(=O)O)C(=O)N[C@H](C)C(=O)N[C@@H](CC(=O)O)C(=O)NCC(=O)N[C@H](CO)C(=O)N[C@@H]([C@H](C)CC(=O)O)C(=O)N[C@@H](CC(=O)c4ccccc4N)C(=O)O[C@@H]3C)cc2)cc1 [Compound 61, N-[4′-(pentyloxy)biphenyl-4-carbonyl]-L-tryptophyl-D-asparaginyl-L-α-aspartyl-L-threonylglycyl-L-ornithyl-L-α-aspartyl-D-alanyl-L-α-aspartylglycyl-D-seryl-(3R)-3-methyl-L-α-glutamyl-(αS)-α,2-diamino-γ-oxobenzenebutanoic acid (13→4)-lactone]",–,–,useful against daptomycin resistant strains of bacteria,2,as active or more active than daptomycin,–,4 µg/mL,–,–,–,–,2 µg/mL and 1 µg/mL,more effective than daptomycin,0.5,–,–
